Patent US7833972B2, “Proteins and use thereof” (Takeda Pharmaceutical Company Limited, priority 2002, dated 2010)
Structures can show the parent of a compound that is named as a salt.

Experiments:
SST20-14 = experiment: Expression of SST20-14 mRNA in 3T3-L1 cell by insulin resistance inducing factor (TaqMan PCR); assay type: cell-based, mouse
Method: Analysis of Expression of Novel Secretory or Membrane Protein Gene by Insulin Resistance Inducing Factor
3T3-L1 cell was inoculated into 6-well plate at 4×10^5 cells/well of cell number and incubated on DMEM (Invitrogen) medium containing 10% fetal bovine serum (Invitrogen) at 37° C. for 5 days. The medium was exchanged to a differentiation medium [DMEM medium containing 250 nM dexamethasone (Sigma), 0.5 mM 1-methyl-3-isobutyl xanthine (Wako Pure Chemical Industries, Ltd.), 10 μg/ml insulin (Sigma) and 10% fetal bovine serum] and further incubated for 24 hours. In exchanging the medium to the differentiation medium, each of TNF-α (Genzyme Techne) at the concentration of 1 nM, 100 pM and 10 pM was added to the medium at the same time. After completing incubation, the medium was washed with PBS (Invitrogen), and the cells were collected. Total RNA was gathered from the collected cells using RNAeasy kit (Qiagen) according to the instructions attached to the kit. Using the gathered total RNA, expression amounts of SST20-14 and mRNA of 36B4 which is used as internal standard were quantified by TaqMan PCR (Applied Biosystems).

SST8-5 = experiment: Expression of SST8-5 mRNA in 3T3-L1 cell by an insulin sensitizer (TaqMan PCR); assay type: cell-based, mouse; conditions: 10 μM, 72 hours in differentiation medium in the presence of insulin; 36B4 mRNA internal standard
Method: Analysis of Expression of Novel Secretory or Membrane Protein Gene by an Insulin Sensitizer 3T3-L1 cell was inoculated into 6-well plate at 4×10^5 cells/well of cell number and incubated on DMEM (Invitrogen) medium containing 10% fetal bovine serum (Invitrogen) at 37° C. for 5 days. The medium was exchanged to a differentiation medium [DMEM medium containing 250 nM dexamethasone (Sigma), 0.5 mM 1-methyl-3-isobutyl xanthine (Wako Pure Chemical Industries, Ltd.), 10 μg/ml insulin (Sigma) and 10% fetal bovine serum]. In exchanging the medium to the differentiation medium, pioglitazone hydrochloride (10 μM, Takeda Pharmaceutical Company, Ltd.) which is an insulin sensitizer was added to the medium, and incubated for 72 hours in the presence of insulin. After completing incubation, the medium was washed with PBS (Invitrogen), and the cells were collected. Total RNA was gathered from the collected cells using RNAeasy kit (Qiagen) according to the instructions attached to the kit. Using the gathered total RNA, expression amounts of SST8-5 and mRNA of 36B4 which is used as internal standard were quantified by TaqMan PCR (Applied Biosystems). As a result, the expression amount of SST8-5 increased 2.4-fold by addition of pioglitazone hydrochloride as compared with control (pioglitazone hydrochloride free).

3T3-L1 cell = experiment: Differentiation of preadipocyte strain 3T3-L1 into mature adipocyte (oil red-O staining of lipid drop accumulation); assay type: cell-based; conditions: 3T3-L1 cell overexpressing SST20-14 (pCMV-SST20-14, Long form cDNA); differentiation medium 72 hours then 8 days; qualitative, microscopic observation
Method: Analysis of Action for Differentiation of Preadipocyte Strain 3T3-L1 into Mature Adipocyte
3T3-L1 cell was inoculated into 6-well plate at 2×10^5 cells/well of cell number, and incubated on DMEM (Invitrogen) medium containing 10% fetal bovine serum (Invitrogen) at 37° C. for 7 days, incubation solution was suctioned, and the well was washed twice with PBS (Invitrogen), and then 2 ml/well of OPTI-MEM (Invitrogen) was added thereto. OPTI-MEM (100 μl) and FuGENE™6 (10 μl, Roche) were mixed and stood still at room temperature for 5 minutes. Thereto was added […] of construct for expression pCMV-SST20-14 prepared by inserting SST20-14 (Long form) cDNA into EcoRI-HindIII cloning site of pCMV-Tag4A (Sigma) which is an expression plasmid, and the mixed solution was stood still at room temperature for 45 minutes. The solution containing the expression construct was added to the above-mentioned 3T3-L1 cell, and incubated at 37° C. for 6 hours, and then incubated on DMEM medium containing 10% fetal bovine serum at 37° C. for 40 hours. Then, the medium was exchanged to a differentiation medium [DMEM medium containing 250 nM dexamethasone (Sigma), 0.5 mM 1-methyl-3-isobutyl xanthine (Wako Pure Chemical Industries, Ltd.), 10 μg/ml insulin (Sigma) and 10% fetal bovine serum] and incubated for 72 hours. […]

TNF-α
reduction of expression amount of SST20-14 as compared with control (TNF-α free) (SST20-14; 1 nM TNF-α for 24 hours in differentiation medium, 36B4 mRNA internal standard): about 70%
change of expression amount of SST20-14 with TNF-α concentration (SST20-14; TNF-α 1 nM, 100 pM and 10 pM, 24 hours in differentiation medium): changed depending on added TNF-α concentration

CCc1ccc(CCOc2ccc(CC3SC(=O)NC3=O)cc2)nc1 (stereo not shown) [pioglitazone hydrochloride]
increase of expression amount of SST8-5 as compared with control (pioglitazone hydrochloride free) (SST8-5): 2.4 fold

B1: SST20-14: mouse white adipose tissue-derived secretory or membrane protein, SEQ ID NO: 2; overexpressed from pCMV-SST20-14 construct (protein, listed as Mus musculus)
chain: MAGSRGLPLLLLVLQLFLGPVLPVRAPVFGRSDTPTLSPEENEFVEEENQPVLVLSSEEPEPGPATVDCPRDCACSQEGVVDCGGIDLREFPGDLPEHTNHLSLQNNQLEKIYPEELSRLQRLETLNLQNNRLTSRGLPEEAFEHLTSLNYLYLANNKLTLAPRFLPNALISVDFAANYLTKIYGLTFGQKPNLRSVYLHNNKLADAGLPDHMFNGSSNVEILILSSNFLRHVPKHLPPALYKLHLKNNKLEKIPPGAFSELSNLRELYLQNNYLTDEGLDNETFWKLSSLEYLDLSSTNLSRVPAGLPRSLVLLHLEKNAIQSVEADVLTPIRNLEYLLLHSNQLQAKGIHPLAFQGLKKLHTVHLYNNALERVPSGLPRRVRTLMILHNQITGIGREDFATTYFLEELNLSYNRITSPQMHRDAFRKLRLLRSLDLSGNRLQTLPPGLPKNVHVLKVKRNELAALARGALAGMAQLRELYLTGNRLRSRALGPRAWVDLAGLQLLDIAGNQLTEVPEGLPPSLEYLYLQNNKISAVPANAFDSTPNLKGIFLRFNKLAVGSVVESAFRRLKHLQVLDIEGNFEFGNGSKDKDEEEEEEEEEEDEEEETR
accumulation of lipid drop as compared with control 3T3-L1 cell (3T3-L1 cell): reduced to a half or less
